Data taken from EP3254699B1, “SOLID DISPERSION CONTAINING DUTASTERIDE, AND COMPOSITION CONTAINING SAME” (Whanin Pharmaceutical. Co., Ltd., priority 2015, dated 2016).
Read-outs that look alike come from different tables or passages of the source.

Experiments:
[1] = Solubility of dutasteride: powder suspended in water at the supersaturation concentration of 1 mg/ml, 0.45 um filtering, HPLC; type: physicochemical; conditions: raw material of dutasteride itself, compared in Experimental Example 4
Method: Alpha-cyclodextrin, beta-cyclodextrin, gamma-cyclodextrin and hydroxypropyl-beta-cyclodextrin were dissolved in water, respectively, and dutasteride was dissolved in the same amount of ethanol. Then, the two liquids were mixed to form an inclusion complex. In this case, the weight ratio of dutasteride and cyclodextrin was 1:100. The inclusion complex of cyclodextrin and dutasteride in the form of powder was obtained from the mixture solution of ethanol and distilled water through a drying process, followed by suspension in water at the supersaturation concentration of 1 mg/ml. The solubility was measured with HPLC after 0.45 um filtering. The analysis conditions and the result of solubility are as shown below.
• Column: Zobrax SB-Phenyl (150 mm x 3.0 mm, 3.5 um) or a column equivalent thereto • Mobile phase: Mixture liquid of acetonitrile and purified water (55:45, v/v) • Wavelength of detection: UV, 240 nm • Amount of injection: 50 uL • Flow rate: 0.5 mL/min
Gamma-cyclodextrin was dissolved in water, and dutasteride, polyvinyl pyrrolidone and gelucire (macrogol glyceride) were dissolved in the same amount of ethanol. Then, the experiment was performed as in Experimental Example 1 to evaluate the solubility of dutasteride.

[2] = cited from earlier work

In the case of `C[C@]12C=CC(=O)N[C@@H]1CC[C@@H]1[C@@H]2CC[C@]2(C)[C@@H](C(=O)Nc3cc(C(F)(F)F)ccc3C(F)(F)F)CC[C@@H]12` [dutasteride], the Solubility of dutasteride [1] is listed as “not detected”, the Solubility of dutasteride ([2]; in ethanol) is listed as 44 mg/mL and the Solubility of dutasteride ([2]; in methanol) is listed as 64 mg/mL. The Solubility of dutasteride ([2]; in polyethylene glycol 400) was 3 mg/mL and the Solubility of dutasteride ([2]; in water) was “poorly soluble”.
